Measurements taken from patent publication US20240366589A1, “NHE3-BINDING COMPOUNDS AND METHODS FOR INHIBITING PHOSPHATE TRANSPORT” (Ardelyx, Inc., priority 2013, published 2024).

What was measured:
Rat NHE3 = biological target: T1, Rat NHE3 (Rattus norvegicus, UniProt P26433); assay: Cell-based NHE3 activity under prompt conditions (OK cells, BCECF pH recovery), rat NHE3; details: prompt conditions
T1 construct: expressed in transfected cells; host or cells: Opossum kidney (OK) cells (ATCC), electroporation
T1 sequence (P26433 29-831): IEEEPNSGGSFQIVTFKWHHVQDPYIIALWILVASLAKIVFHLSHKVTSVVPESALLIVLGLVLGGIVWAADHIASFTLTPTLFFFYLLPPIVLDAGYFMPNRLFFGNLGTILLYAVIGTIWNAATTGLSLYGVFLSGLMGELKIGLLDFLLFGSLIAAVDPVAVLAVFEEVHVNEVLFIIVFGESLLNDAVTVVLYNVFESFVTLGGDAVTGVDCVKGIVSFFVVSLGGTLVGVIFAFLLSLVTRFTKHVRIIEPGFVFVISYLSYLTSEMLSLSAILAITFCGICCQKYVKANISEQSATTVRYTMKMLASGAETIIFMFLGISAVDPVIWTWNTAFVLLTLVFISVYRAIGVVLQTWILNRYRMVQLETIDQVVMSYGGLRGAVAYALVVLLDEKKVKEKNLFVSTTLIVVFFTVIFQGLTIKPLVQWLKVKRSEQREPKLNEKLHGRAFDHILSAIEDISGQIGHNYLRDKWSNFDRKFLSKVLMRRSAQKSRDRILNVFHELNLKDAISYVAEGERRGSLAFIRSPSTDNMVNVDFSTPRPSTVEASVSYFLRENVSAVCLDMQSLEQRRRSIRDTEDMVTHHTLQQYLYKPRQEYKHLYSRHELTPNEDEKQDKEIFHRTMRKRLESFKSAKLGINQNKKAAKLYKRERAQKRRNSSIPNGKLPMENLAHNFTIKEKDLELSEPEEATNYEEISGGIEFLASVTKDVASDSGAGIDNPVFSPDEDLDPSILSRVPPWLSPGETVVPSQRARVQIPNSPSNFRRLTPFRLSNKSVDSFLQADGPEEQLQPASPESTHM
Method in brief: (§1)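 Fluorometric NHE3 antiport assay in opossum kidney cells carrying rat or human NHE3, using BCECF pH recovery after NH4Cl-prepulse acid loading. pIC50 values derive from initial rates averaged across at least two replicates.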

Human NHE3 = biological target: T2, Human NHE3 (Homo sapiens, UniProt P48764); assay: Cell-based NHE3 activity under prompt conditions (OK cells, BCECF pH recovery), human NHE3; details: prompt conditions
T2 construct: expressed in transfected cells; host or cells: Opossum kidney (OK) cells (ATCC), electroporation
T2 sequence (P48764 26-834): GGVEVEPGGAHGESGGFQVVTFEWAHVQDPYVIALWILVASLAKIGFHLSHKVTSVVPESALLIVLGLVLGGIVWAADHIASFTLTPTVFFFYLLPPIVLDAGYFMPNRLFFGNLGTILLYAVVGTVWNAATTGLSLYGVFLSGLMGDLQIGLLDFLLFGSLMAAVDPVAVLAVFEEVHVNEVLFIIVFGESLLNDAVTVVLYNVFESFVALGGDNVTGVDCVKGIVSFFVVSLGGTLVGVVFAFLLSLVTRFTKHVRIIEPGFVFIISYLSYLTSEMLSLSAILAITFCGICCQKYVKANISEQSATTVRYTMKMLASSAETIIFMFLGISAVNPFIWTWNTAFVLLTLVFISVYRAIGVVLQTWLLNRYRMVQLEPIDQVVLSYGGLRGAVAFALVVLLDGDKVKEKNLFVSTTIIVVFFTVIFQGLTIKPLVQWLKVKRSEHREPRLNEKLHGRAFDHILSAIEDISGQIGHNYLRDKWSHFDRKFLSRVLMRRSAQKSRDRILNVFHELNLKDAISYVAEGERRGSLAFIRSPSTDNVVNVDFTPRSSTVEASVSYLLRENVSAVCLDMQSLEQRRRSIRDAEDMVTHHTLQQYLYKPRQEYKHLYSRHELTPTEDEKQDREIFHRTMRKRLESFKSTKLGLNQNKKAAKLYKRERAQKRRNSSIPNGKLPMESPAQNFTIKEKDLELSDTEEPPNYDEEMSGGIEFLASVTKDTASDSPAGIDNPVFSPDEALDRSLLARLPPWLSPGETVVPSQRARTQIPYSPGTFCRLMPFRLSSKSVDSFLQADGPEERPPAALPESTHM
Method in brief: as §1

[1] = tested on: absorption of sodium from the intestinal lumen; assay: Inhibition of intestinal sodium absorption: urinary sodium (uNa) 16 h after single oral dose in rats; type: in vivo, rat; details: oral gavage, 16 h post-dose
Method in brief: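 Urinary sodium mass over the 16 h after one oral gavage dose, measured by cation-exchange ion chromatography, reported as percent of water-vehicle group; ANOVA plus Dunnett's post hoc test. Groups of six 8-week-old Sprague-Dawley rats, housed individually in metabolic cages post-dose, fed and watered freely.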

[2] = tested on: absorption of sodium from the intestinal lumen; assay: Fecal form score (FFS) 16 h after oral dose in rats; type: in vivo, rat; details: oral gavage, 16 h post-dose, scale 1-5
Method in brief: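 Fecal form was scored at 16 h post-dose on a 1–5 wetness scale (normal pellet to liquid stream), with two independent observations averaged across six rats per group. Animals were 8-week-old Sprague-Dawley rats given test compound or water orally in the late afternoon and kept in metabolic cages.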

[3] = tested on: phosphorus and calcium levels in the urine of rats; assay: Urinary excretion of phosphate and calcium in rats (16 h overnight urine); type: in vivo, rat; details: rats, oral gavage, 16 h post-dose

Structure (SMILES)	Prompt Rat NHE3 pIC50 (Rat NHE3)	Prompt Human NHE3 pIC50 (Human NHE3)	Urine Na % of control ([1]; dose 1 mg/kg) [%]	Urine Na % of control ([1]; dose 10 mg/kg) [%]	Fecal Form Score average ([2]; dose 1 mg/kg)	Fecal Form Score average ([2]; dose 10 mg/kg)	Urine P % of control ([3]; dose 1 mg/kg) [%]	Urine P % of control ([3]; dose 10 mg/kg) [%]
CN1Cc2c(Cl)cc(Cl)cc2[C@@H](c2cccc(S(=O)(=O)NCCOCCOCCNC(=O)NCCCCNC(=O)NCCOCCOCCNS(=O)(=O)c3cccc([C@H]4CN(C)Cc5c(Cl)cc(Cl)cc54)c3)c2)C1 [compound 40]	<5.00	<5.00	80	90	1	1	149	128
N=C(N)Nc1nc(-c2cccc(N3CCN(CCOCCOCCOCCNC(=O)NCCOCCOCCNC(=O)CN(CCN(CC(=O)O)CC(=O)NCCOCCOCCNC(=O)NCCOCCOCCOCCN4CCN(c5cccc(-c6nc(NC(=N)N)nc7ccc(Cl)cc67)c5)CC4)CC(=O)O)CC3)c2)c2cc(Cl)ccc2n1 [compound 41]	7.90	8.20	–	104	–	1	–	133
CN(CC(=O)NCCOCCOCCNC(=O)NCCOCCOCCOCCN1CCN(c2cccc(-c3nc(NC(=N)N)nc4ccc(Cl)cc34)c2)CC1)CC(=O)NCCOCCOCCNC(=O)NCCOCCOCCOCCN1CCN(c2cccc(-c3nc(NC(=N)N)nc4ccc(Cl)cc34)c2)CC1 [compound 42]	7.70	8.20	–	94	–	1	–	94
CN(CC(=O)NCCOCCOCCNC(=O)NCCOCCOCCOCCOc1cccc(-c2nc(NC(=N)N)nc3ccc(Cl)cc23)c1)CC(=O)NCCOCCOCCNC(=O)NCCOCCOCCOCCOc1cccc(-c2nc(NC(=N)N)nc3ccc(Cl)cc23)c1 [compound 43]	7.50	7.70	–	70	–	1	–	101
N=C(N)Nc1nc(-c2cccc(OCCOCCOCCOCCNC(=O)NCCOCCOCCNC(=O)CN(CCN(CC(=O)O)CC(=O)NCCOCCOCCNC(=O)NCCOCCOCCOCCOc3cccc(-c4nc(NC(=N)N)nc5ccc(Cl)cc45)c3)CC(=O)O)c2)c2cc(Cl)ccc2n1 [compound 44]	7.70	7.90	–	88	–	1	–	102
CN(CC(=O)NCCOCCOCCNC(=O)NCCOCCOCCOCCN1CCN(c2ccc(-c3nc(N=C(N)N)nc4ccc(Cl)cc34)cc2)CC1)CC(=O)NCCOCCOCCNC(=O)NCCOCCOCCOCCN1CCN(c2ccc(-c3nc(N=C(N)N)nc4ccc(Cl)cc34)cc2)CC1 [compound 45]	7.50	7.90	–	97	–	1	–	109
NC(N)=Nc1nc(-c2ccc(N3CCN(CCOCCOCCOCCNC(=O)NCCOCCOCCNC(=O)CN(CCN(CC(=O)O)CC(=O)NCCOCCOCCNC(=O)NCCOCCOCCOCCN4CCN(c5ccc(-c6nc(N=C(N)N)nc7ccc(Cl)cc67)cc5)CC4)CC(=O)O)CC3)cc2)c2cc(Cl)ccc2n1 [compound 46]	7.80	7.90	–	58	–	1	–	112
O=C(O)CN(CCN(CC(=O)O)CC(=O)NCCOCCOCCOCCNS(=O)(=O)c1ccc(OC2c3ccccc3CC2N2CCCCC2)cc1)CC(=O)NCCOCCOCCOCCNS(=O)(=O)c1ccc(OC2c3ccccc3CC2N2CCCCC2)cc1 (stereo not shown) [compound 49]	7.65	7.40	–	38	–	1	–	77
CN(CC(=O)NCCOCCOCCOCCNS(=O)(=O)c1ccc(OC2c3ccccc3CC2N2CCCCC2)cc1)CC(=O)NCCOCCOCCOCCNS(=O)(=O)c1ccc(OC2c3ccccc3CC2N2CCCCC2)cc1 (stereo not shown) [compound 52]	7.35	7.40	–	68	–	1	–	71
O=C(CCOCCOCCOCCOCCOCCC(=O)NCCOCCOCCOCCNS(=O)(=O)c1ccc(OC2c3ccccc3CC2N2CCCCC2)cc1)NCCOCCOCCOCCNS(=O)(=O)c1ccc(OC2c3ccccc3CC2N2CCCCC2)cc1 (stereo not shown) [compound 53]	7.45	7.40	–	100	–	1	–	59
CN1Cc2c(Cl)cc(Cl)cc2[C@H](c2cccc(S(=O)(=O)NCCOCCOCCOCCNC(=O)c3cc(C(=O)NCCOCCOCCOCCNS(=O)(=O)c4cccc([C@@H]5CN(C)Cc6c(Cl)cc(Cl)cc65)c4)cc(C(=O)NCCOCCOCCOCCNS(=O)(=O)c4cccc([C@@H]5CN(C)Cc6c(Cl)cc(Cl)cc65)c4)c3)c2)C1 [compound 56]	6.90	7.00	–	15	–	2	–	50
CN1Cc2c(Cl)cc(Cl)cc2[C@H](c2cccc(S(=O)(=O)NCCOCCOCCOCCNC(=O)CN(CC(=O)NCCOCCOCCOCCNS(=O)(=O)c3cccc([C@@H]4CN(C)Cc5c(Cl)cc(Cl)cc54)c3)CC(=O)NCCOCCOCCOCCNS(=O)(=O)c3cccc([C@@H]4CN(C)Cc5c(Cl)cc(Cl)cc54)c3)c2)C1 [compound 57]	7.10	7.50	–	25	–	3	–	75
CN1Cc2c(Cl)cc(Cl)cc2[C@H](c2cccc(S(=O)(=O)NCCOCCOCCOCCNC(=O)CN3CCN(CC(=O)NCCOCCOCCOCCNS(=O)(=O)c4cccc([C@@H]5CN(C)Cc6c(Cl)cc(Cl)cc65)c4)CCN(CC(=O)NCCOCCOCCOCCNS(=O)(=O)c4cccc([C@@H]5CN(C)Cc6c(Cl)cc(Cl)cc65)c4)CCN(CC(=O)NCCOCCOCCOCCNS(=O)(=O)c4cccc([C@@H]5CN(C)Cc6c(Cl)cc(Cl)cc65)c4)CC3)c2)C1 [compound 58]	6.30	7.30	–	82	–	1	–	68
NCCOCCOCCNS(=O)(=O)c1ccc(O[C@H]2c3ccccc3C[C@@H]2N2CCCCC2)cc1 [compound 60]	6.35	7.10	–	67	–	1	–	92
